Measured values taken from US9266872B2, “2-hydroxyarylamide derivative or pharmaceutically acceptable salt thereof, preparation method thereof, and pharmaceutical composition for preventing or treating cancer containing same as active ingredient” (KOREA RESEARCH INSTITUTE OF BIOSCIENCE AND BIOTECHNOLOGY, priority 2011, dated 2016).
Where two headings read alike, the source gives them in different places.

What was measured:
TMPRSS4 serine protease = target: T1, TMPRSS4 serine protease (Homo sapiens, UniProt Q9NRS4); assay: Inhibitory effect on TMPRSS4 serine protease activity using peptide substrate; assay type: biochemical; conditions: kallikrein peptide substrate 100 μM, DMSO negative control; for Intracellular protease activity Inhibition % 10 uM / inhibition at 10 µM: 10 uM compound; for inhibition at 10 µM: read-out: Intracellular protease activity Inhibition % 10 uM; for inhibition at 30 µM / Intracellular protease activity Inhibition % 30 uM: 30 uM compound; for inhibition at 30 µM: read-out: Intracellular protease activity Inhibition % 30 uM; for inhibition at 100 µM: read-out: Intracellular protease activity Inhibition % 100 uM
T1 construct: TMPRSS4 serine protease domain (205th Val˜437th Leu) was cloned in pET21b/NdeI-XhoI; inferred from pET21b XhoI cloning and Ni-NTA purification) (C); made in house; host or cells: E. coli BL21 (DE3)
T1 sequence (Q9NRS4 205-437): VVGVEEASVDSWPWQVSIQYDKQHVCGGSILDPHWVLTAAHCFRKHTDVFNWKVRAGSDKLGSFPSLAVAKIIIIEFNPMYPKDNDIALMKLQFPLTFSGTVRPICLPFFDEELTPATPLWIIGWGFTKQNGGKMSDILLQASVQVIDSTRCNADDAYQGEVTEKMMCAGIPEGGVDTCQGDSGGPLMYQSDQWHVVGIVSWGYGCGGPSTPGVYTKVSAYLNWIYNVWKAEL
Description: TMPRSS4 serine protease domain (205th Val˜437th Leu) was cloned in pET21b/NdeI-XhoI, which was introduced in E. coli BL21 (DE3). At this time, FlagX2-enterokinase cleavage site ([…]; total 15 amino acids) was inserted in N-terminal of TMPRSS4 serine protease domain as shown in FIG. 1. The forward and reverse primers for PCR used for the cloning were presented by SEQ. ID. NO: 1 and NO: 2.
The cells were cultured in 10 ml of LB containing ampicillin at 37° C. overnight. IL of LB+ampicillin was added thereto, followed by further culture until OD reached 0.6˜0.8. 0.1 mM IPTG was added thereto, followed by further culture for 16 hours. Cell pellet was obtained, purified by Ni-NTA (Qiagen), and dialyzed. TMPRSS4 serine protease (pro-form) labeled with 2 mg of 2Xflag-enterokinase cleavage site was conjugated to Ni-NTA resin (4°, overnight). Enterokinase (NEB) was treated thereto at the concentration of 0.0002%/w/w at room temperature for 5 hours. The sample was washed, eluted with 50 mM imidazole in 20 mM of sodium phosphate buffer, and then dialyzed.
The protein activity was evaluated by measuring fluorescence shown during hydrolysis of the peptide. […] Reaction was induced after adding 100 μM of the peptide substrate into reaction buffer (50 mM Tris-HCl (pH 8.0), 10 mM CaCl2, 1 μM ZnCl2). Then, fluorescence was measured at 5 minutes interval (excitation 385 nm, emission 455 nm).
Then, fluorescence (excitation 385 nm/emission 455 nm) was measured at 5 minutes interval for 150 minutes. […] Dimethylsulfoxide (DMSO) was used as the negative control.

[1] = tested on: TMPRSS4 over-expressing colorectal cancer cell line SW480; assay: Inhibitory effect on infiltration of cancer cells over-expressing TMPRSS4 (matrigel trans-well); assay type: cell-based; conditions: Homo sapiens, read-out: Inhibition rate of target-expressing colorectal cancer cell activity (%, 0.1~2 uM)
Description: The cells were distributed in a 6-well plate at the density of 3×10^5 cells/well, followed by transfection. 48 hours later, the medium was replaced with a selection medium (800 μg/ml G418 medium). G418-resistant clone was separated, followed by culture for 2 weeks, during which selection was performed.
The cancer cell line constructed in step 1 was distributed in a 24-well trans-well plate (8 μm pore size; Costar, USA) whose porous membrane was coated with 100 μl of matrigel (BD Biosciences, USA) diluted with serum-free medium at the concentration of 250 μg/ml, which stood at room temperature for 1 hour for solidification. Lower chamber of the trans-well plate was coated with 100 μl of collagen type I (Sigma) at the concentration of 20 μg/ml. […] While culturing the cells in a 37, 5% CO2 incubator for 48 hours, cell migration from the upper chamber to lower chamber was allowed. […] The excessive crystal violet solution was washed away with distilled water. The migrated cell number was counted from 5 randomly selected areas (×200). The experiment was repeated at least twice under the same condition, and the representative result was presented.
The inhibitory effect of each compound on the infiltration of TMPRSS4 over-expressing colorectal cancer cell line SW480 was calculated by Mathematical Formula 1, which presents the number of infiltrated cells with % by the number of infiltrated cells in the negative control treated with DMSO. Infiltration Inhibition Rate (%)=100−Infiltrated cell number with the treatment of each compound/Infiltrated cell number with the treatment of DMSO×100 [Mathematical Formula 1]

[2] = 0.8 uM, SW480 over-expressing TMPRSS4, 48 hours
[3] = SW480 over-expressing TMPRSS4, 48 hours
[4] = 2 uM, SW480 over-expressing TMPRSS4, 48 hours

## O=C(Nc1cc(C(F)(F)F)cc(C(F)(F)F)c1)c1cc(Cl)ccc1O [Example 1, N-(3,5-bis(trifluoromethyl)phenyl)-5-chloro-2-hydroxybenzamide]
TMPRSS4 serine protease
  Intracellular protease activity Inhibition % 10 uM: 64%
  inhibition at 10 µM: 51 to 100%
  inhibition at 30 µM: 96%
TMPRSS4 serine protease; 100 uM compound
  inhibition at 100 µM: 100%
[1]; SW480, 48 h
  inhibition at 0.8 µM: 76%

## COc1cc(NC(=O)c2cc(Cl)ccc2O)cc(C(F)(F)F)c1 [Example 6, 5-chloro-2-hydroxy-N-(3-methoxy-5-(trifluoromethyl)phenyl)benzamide]
TMPRSS4 serine protease
  Intracellular protease activity Inhibition % 10 uM: 67%
  inhibition at 10 µM: 51 to 100%
  inhibition at 30 µM: 88%
TMPRSS4 serine protease; 100 uM compound
  inhibition at 100 µM: 99%
[1]; [2]
  inhibition at 0.8 µM: 49%

## O=C(Nc1cc(C(F)(F)F)cc(C(F)(F)F)c1)c1cc2ccccc2cc1O [Example 8, N-(3,5-bis(trifluoromethyl)phenyl)-2-hydroxy-3-naphthaamide]
TMPRSS4 serine protease
  Intracellular protease activity Inhibition % 10 uM: 58%
  inhibition at 10 µM: 51 to 100%
  inhibition at 30 µM: 96%
[1]; [2]
  inhibition at 0.8 µM: 72%

## N#Cc1ccc(NC(=O)c2cc(Cl)ccc2O)cc1C(F)(F)F [Example 19, 5-chloro-N-(4-cyano-3-(trifluoromethyl)phenyl)-2-hydroxybenzamide]
TMPRSS4 serine protease
  inhibition at 30 µM: 88%
TMPRSS4 serine protease; 100 uM compound
  inhibition at 100 µM: 100%
[1]; SW480, 48 h
  inhibition at 2 µM: 81%

## O=C(Nc1cc(Br)cc(C(F)(F)F)c1)c1cc(Cl)ccc1O [Example 22, N-(3-bromo-5-(trifluoromethyl)phenyl)-5-chloro-2-hydroxybenzamide]
TMPRSS4 serine protease
  Intracellular protease activity Inhibition % 10 uM: 64%
  inhibition at 10 µM: 51 to 100%
  inhibition at 30 µM: 100%
TMPRSS4 serine protease; 100 uM compound
  inhibition at 100 µM: 100%
[1]; [3]
  inhibition at 0.1 µM: 43%

## O=C(Nc1cnc2ccccc2c1)c1cc(Cl)ccc1O [Example 25, 5-chloro-2-hydroxy-N-quinoline-3-yl-benzamide]
TMPRSS4 serine protease
  inhibition at 30 µM: 8%
TMPRSS4 serine protease; 100 uM compound
  inhibition at 100 µM: 75%
[1]; 25 uM, SW480 over-expressing TMPRSS4, 48 hours
  inhibition at 25 µM: 51%

## N#Cc1ccc(NC(=O)c2cc(Cl)ccc2O)c(Cl)c1 [Example 27, 5-chloro-N-(2-chloro-4-cyano-phenyl)-2-hydroxy-benzamide]
TMPRSS4 serine protease
  inhibition at 30 µM: 92%
TMPRSS4 serine protease; 100 uM compound
  inhibition at 100 µM: 100%
[1]; [4]
  inhibition at 2 µM: 54%

## O=C(Nc1nnc(C(F)(F)F)s1)c1cc(Cl)ccc1O [Example 28, 5-chloro-2-hydroxy-N-(5-trifluoromethyl-[1,3,4]thiadiazole-2-yl)-benzamide]
TMPRSS4 serine protease
  inhibition at 30 µM: 75%
TMPRSS4 serine protease; 100 uM compound
  inhibition at 100 µM: 100%
[1]; [4]
  inhibition at 2 µM: 52%

## O=C(Nc1ccc(Cl)c(C(F)(F)F)c1)c1cc(Cl)ccc1O [Example 32, 5-chloro-N-(4-chloro-3-(trifluoromethyl)phenyl)-2-hydroxybenzamide]
TMPRSS4 serine protease
  Intracellular protease activity Inhibition % 10 uM: 71%
  inhibition at 10 µM: 51 to 100%
  inhibition at 30 µM: 95%
TMPRSS4 serine protease; 100 uM compound
  inhibition at 100 µM: 99%
[1]; [2]
  inhibition at 0.8 µM: 68%

## Cc1c(C(F)(F)F)cc(NC(=O)c2cc(Cl)ccc2O)cc1C(F)(F)F [Example 33, 5-chloro-2-hydroxy-N-(4-methyl-3,5-bis(trifluoromethyl)phenyl)benzamide]
TMPRSS4 serine protease
  Intracellular protease activity Inhibition % 10 uM: 51%
  inhibition at 10 µM: 51 to 100%
  inhibition at 30 µM: 94%
[1]; [3]
  inhibition at 0.1 µM: 43%

## O=C(Nc1ccc(C(F)(F)F)cc1[N+](=O)[O-])c1cc(Cl)ccc1O [Example 36, 5-chloro-2-hydroxy-N-(2-nitro-4-trifluoromethyl-phenyl)-benzamide]
TMPRSS4 serine protease
  Intracellular protease activity Inhibition % 10 uM: 53%
  inhibition at 10 µM: 51 to 100%
[1]; [2]
  inhibition at 0.8 µM: 76%

## N#Cc1ccc(NC(=O)c2cc(Cl)ccc2O)nc1 [Example 37, 5-chloro-N-(5-cyano-pyridine-2-yl)-2-hydroxy-benzamide]
TMPRSS4 serine protease
  inhibition at 10 µM: 26%
  Intracellular protease activity Inhibition % 30 uM: 63%
  inhibition at 30 µM: 47 to 100%
[1]; 5 uM, SW480 over-expressing TMPRSS4, 48 hours
  inhibition at 5 µM: 44%

## O=C(Nc1ccc(Br)c(C(F)(F)F)c1)c1cc(Cl)ccc1O [Example 63, N-(4-bromo-3-(trifluoromethyl)phenyl)-5-chloro-2-hydroxybenzamide]
TMPRSS4 serine protease
  Intracellular protease activity Inhibition % 10 uM: 30%
  Intracellular protease activity Inhibition % 30 uM: 46%
TMPRSS4 serine protease; 100 uM compound
  Intracellular protease activity Inhibition % 100 uM: 98%

## O=C(Nc1cc(C(F)(F)F)ccc1F)c1cc(Cl)ccc1O [Example 64, 5-chloro-N-(2-fluoro-5-(trifluoromethyl)phenyl)-2-hydroxybenzamide]
TMPRSS4 serine protease
  Intracellular protease activity Inhibition % 10 uM: 67%
TMPRSS4 serine protease; 100 uM compound
  inhibition at 100 µM: 100%

## O=C(Nc1cc(Cl)c(Cl)c(Cl)c1)c1cc(Cl)ccc1O [Example 66, 5-chloro-2-hydroxy-N-(3,4,5-trichloro-phenyl)benzamide]
TMPRSS4 serine protease
  inhibition at 10 µM: 6%
  inhibition at 30 µM: 23%

## O=C(Nc1cc(C(F)(F)F)cc(C(F)(F)F)c1)c1cc(Cl)cnc1O [Example 67, N-(3,5-bis(trifluoromethyl)phenyl)-5-chloro-2-hydroxynicotineamide]
TMPRSS4 serine protease
  inhibition at 10 µM: 0%
  inhibition at 30 µM: 19%

## O=C(Nc1cc(C(F)(F)F)cc(C(F)(F)F)c1)c1cnc2ccccc2c1O [Example 68, N-(3,5-bis(trifluoromethyl)phenyl)-4-hydroxyquinoline-3-carboxamide]
TMPRSS4 serine protease
  inhibition at 10 µM: 0%
  inhibition at 30 µM: 0%

## O=C(NC1=NCCS1)c1cc(Cl)ccc1O [Example 69, 5-chloro-N-(4,5-dihydrothiazol-2-yl)-2-hydroxybenzamide]
TMPRSS4 serine protease
  inhibition at 10 µM: 17%

## O=C(Nc1nc2c(s1)CCCC2)c1cc(Cl)ccc1O [Example 70, 5-chloro-2-hydroxy-N-(4,5,6,7-tetrahydrobenzo[d]thiazol-2-yl)benzamide]
TMPRSS4 serine protease
  Intracellular protease activity Inhibition % 10 uM: 77%

## Cc1cnc(NC(=O)c2cc(Cl)ccc2O)s1 [Example 71, 5-chloro-2-hydroxy-N-(5-methylthiazole-2-yl)benzamide]
TMPRSS4 serine protease
  Intracellular protease activity Inhibition % 10 uM: 66%
  inhibition at 10 µM: 51 to 100%

## Cc1nc(NC(=O)c2cc(Cl)ccc2O)sc1C [Example 72, 5-chloro-N-(4,5-dimethylthiazol-2-yl)-2-hydroxybenzamide]
TMPRSS4 serine protease
  inhibition at 10 µM: 16%

## CC1CN(Cc2csc(NC(=O)c3cc(Cl)ccc3O)n2)CC(C)O1 (centres unmarked) [Example 73, 5-chloro-N-(4-((2,6-dimethylmorpholino)methyl)thiazol-2-yl)-2-hydroxybenzamide]
TMPRSS4 serine protease
  Intracellular protease activity Inhibition % 10 uM: 85%

## Cn1ccc(NC(=O)c2cc(Cl)ccc2O)n1 [Example 74, 5-chloro-2-hydroxy-N-(1-methyl-1H-pyrazol-3-yl)benzamide]
TMPRSS4 serine protease
  inhibition at 10 µM: 14%

## Cc1nc(NC(=O)c2cc(Cl)ccc2O)n[nH]1 [Example 75, 5-chloro-2-hydroxy-N-(5-methyl-1H-1,2,4-triazol-3-yl)benzamide]
TMPRSS4 serine protease
  Intracellular protease activity Inhibition % 10 uM: 58%
  inhibition at 10 µM: 51 to 100%

## O=C(Nc1nc(-c2cccnc2)cs1)c1cc(Cl)ccc1O [Example 76, 5-chloro-2-hydroxy-N-(4-(pyridin-3-yl)thiazol-2-yl)benzamide]
TMPRSS4 serine protease
  inhibition at 10 µM: 30%
